Results as given in US20250388589A1, “TRICYCLIC HETEROCYCLIC DERIVATIVES, COMPOSITIONS AND USES THEREOF” (Danatlas Pharmaceuticals Co., Ltd., priority 2022, published 2025).

Legend:
[1] = target: hPARG (C-terminal His6-tag) (Homo sapiens (Human), UniProt Q86W56); assay: PARG Enzymatic Activity Assay (HTRF); assay type: biochemical; conditions: hPARG 65 pM final, biotinylated-NAD ribosylated PARP1 8 nM final
Outline: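 E. coli-expressed enzyme (65 pM final) preincubated 60 min RT with compounds (10-point 4-fold dilution, duplicate) in 50 mM Tris pH 7.4, 3 mM EDTA, 1 mM DTT, 50 mM KCl, 0.01% Tween 20. Biotinylated-NAD ribosylated PARP1 substrate (8 nM final) reacted 10 min RT; Eu-streptavidin/anti-6HIS-XL665 HTRF read 665/620 nm after 60 min. IC50 from 4-parameter Hill fit.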

[2] = system: Kuramochi cell line; assay: Cell Viability Assay (Cell Titer-Glo, 7 days); assay type: cell-based; conditions: 168 h, Kuramochi cells, 7 days incubation, read-out: PARG Cell viability (IC50)
Outline: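 Kuramochi cells in RPMI with 10% FBS, seeded at 400 cells/well, were treated with a 9-point 3-fold dilution series in duplicate for 7 days at 37 °C, 5% CO2. Viability by CellTiter-Glo luminescence, normalised to DMSO and medium-only controls; IC50 from 4-parameter Hill fit.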

Sequence of hPARG (C-terminal His6-tag) (Q86W56 whole entry): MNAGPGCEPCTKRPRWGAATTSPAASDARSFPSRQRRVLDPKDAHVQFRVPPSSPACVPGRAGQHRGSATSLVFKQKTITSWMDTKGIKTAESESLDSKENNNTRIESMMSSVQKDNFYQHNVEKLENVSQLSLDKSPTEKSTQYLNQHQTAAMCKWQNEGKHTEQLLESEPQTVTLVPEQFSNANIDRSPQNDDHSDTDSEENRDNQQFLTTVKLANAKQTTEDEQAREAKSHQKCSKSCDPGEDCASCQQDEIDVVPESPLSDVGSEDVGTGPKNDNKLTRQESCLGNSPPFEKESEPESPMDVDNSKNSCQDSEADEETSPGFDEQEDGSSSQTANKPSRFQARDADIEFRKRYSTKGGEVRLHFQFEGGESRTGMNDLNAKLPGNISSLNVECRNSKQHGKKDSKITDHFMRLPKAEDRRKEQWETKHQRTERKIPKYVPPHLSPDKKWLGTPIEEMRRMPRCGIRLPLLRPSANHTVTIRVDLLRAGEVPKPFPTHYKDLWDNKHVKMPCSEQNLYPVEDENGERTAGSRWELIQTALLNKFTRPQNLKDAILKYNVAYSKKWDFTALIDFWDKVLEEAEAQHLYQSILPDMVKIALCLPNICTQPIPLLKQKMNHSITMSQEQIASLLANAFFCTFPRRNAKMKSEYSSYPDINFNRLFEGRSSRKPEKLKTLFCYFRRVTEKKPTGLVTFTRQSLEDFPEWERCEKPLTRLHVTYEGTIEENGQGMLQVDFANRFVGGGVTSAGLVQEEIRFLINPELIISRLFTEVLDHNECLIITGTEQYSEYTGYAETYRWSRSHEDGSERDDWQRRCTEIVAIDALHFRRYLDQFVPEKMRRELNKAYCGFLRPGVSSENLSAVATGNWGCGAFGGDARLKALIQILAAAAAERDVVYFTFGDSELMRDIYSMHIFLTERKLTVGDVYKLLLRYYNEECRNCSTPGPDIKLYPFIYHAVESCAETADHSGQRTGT

CC(C)C(=O)N1CCC(c2ccnc3c2c2ccc(S(=O)(=O)NC4(C#N)CC4)cc2n3-c2nnc(C(F)F)s2)CC1 [Example 197, N-(1-Cyanocyclopropyl)-9-(5-(difluoromethyl)-1,3,4-thiadiazol-2-yl)-4-(1-isobutyrylpiperidin-4-yl)-9H-pyrido[2,3-b]indole-7-sulfonamide]
IC50 [1]: < 100 nM | IC50 [2]: 100 to 1000 nM

CN1CCN(c2ccnc3c2c2ccc(S(=O)(=O)NC4(C#N)CC4)cc2n3-c2nnc(C(F)F)s2)CC1 [Example 198, N-(1-Cyanocyclopropyl)-9-(5-(difluoromethyl)-1,3,4-thiadiazol-2-yl)-4-(4-methylpiperazin-1-yl)-9H-pyrido[2,3-b]indole-7-sulfonamide]
IC50 [1]: < 100 nM | IC50 [2]: < 100 nM

C[C@@H]1COCCN1c1ncnc2c1c1ccc(S(=O)(=O)NC3(C#N)CC3)cc1n2-c1nnc(C(F)F)s1 [Example 199, (R)—N-(1-Cyanocyclopropyl)-9-(5-(difluoromethyl)-1,3,4-thiadiazol-2-yl)-4-(3-methylmorpholino)-9H-pyrimido[4,5-b]indole-7-sulfonamide]
IC50 [1]: < 100 nM | IC50 [2]: < 100 nM

C[C@@H]1CO[C@@H](C)CN1c1ncnc2c1c1ccc(S(=O)(=O)NC3(C#N)CC3)cc1n2-c1nnc(C(F)F)s1 [Example 200, N-(1-Cyanocyclopropyl)-9-(5-(difluoromethyl)-1,3,4-thiadiazol-2-yl)-4-((2S,5R)-2,5-dimethylmorpholino)-9H-pyrimido[4,5-b]indole-7-sulfonamide]
IC50 [1]: < 100 nM | IC50 [2]: < 100 nM

N#CC1(NS(=O)(=O)c2ccc3c4c(N5CC6CCC(C5)O6)ncnc4n(-c4nnc(C(F)F)s4)c3c2)CC1 [Example 201, 4-(8-Oxa-3-azabicyclo[3.2.1]octan-3-yl)-N-(1-cyanocyclopropyl)-9-(5-(difluoromethyl)-1,3,4-thiadiazol-2-yl)-9H-pyrimido[4,5-b]indole-7-sulfonamide]
IC50 [1]: < 100 nM | IC50 [2]: < 100 nM

N#CC1(NS(=O)(=O)c2ccc3c4c(N5C[C@H]6C[C@@H]5CO6)ncnc4n(-c4nnc(C(F)F)s4)c3c2)CC1 [Example 202, 4-((1R,4R)-2-Oxa-5-azabicyclo[2.2.1]heptan-5-yl)-N-(1-cyanocyclopropyl)-9-(5-(difluoromethyl)-1,3,4-thiadiazol-2-yl)-9H-pyrimido[4,5-b]indole-7-sulfonamide]
IC50 [1]: < 100 nM | IC50 [2]: < 100 nM

CN1CCN(c2ncnc3c2c2ccc(S(=O)(=O)NC4(C#N)CC4)cc2n3-c2nnc(C(F)F)s2)C[C@@H]1CF [Example 203, (R)—N-(1-Cyanocyclopropyl)-9-(5-(difluoromethyl)-1,3,4-thiadiazol-2-yl)-4-(3-(fluoromethyl)-4-methylpiperazin-1-yl)-9H-pyrimido[4,5-b]indole-7-sulfonamide]
IC50 [1]: < 100 nM | IC50 [2]: < 100 nM

COC[C@H]1CN(c2ncnc3c2c2ccc(S(=O)(=O)NC4(C#N)CC4)cc2n3-c2nnc(C(F)F)s2)CCN1C [Example 204, (R)—N-(1-Cyanocyclopropyl)-9-(5-(difluoromethyl)-1,3,4-thiadiazol-2-yl)-4-(3-(methoxymethyl)-4-methylpiperazin-1-yl)-9H-pyrimido[4,5-b]indole-7-sulfonamide]
IC50 [1]: < 100 nM | IC50 [2]: < 100 nM

C[C@H]1CN(c2ncnc3c2c2ccc(S(=O)(=O)NC4(C#N)CC4)cc2n3-c2nnc(C(F)F)s2)CCN1CC#N [Example 205, (S)—N-(1-Cyanocyclopropyl)-4-(4-(cyanomethyl)-3-methylpiperazin-1-yl)-9-(5-(difluoromethyl)-1,3,4-thiadiazol-2-yl)-9H-pyrimido[4,5-b]indole-7-sulfonamide]
IC50 [1]: < 100 nM | IC50 [2]: < 100 nM

CCN(CC)C1CCN(c2ncnc3c2c2ccc(S(=O)(=O)NC4(C#N)CC4)cc2n3-c2nnc(C(F)F)s2)C[C@@H]1F (stereo partly drawn) [Example 206, N-(1-Cyanocyclopropyl)-4-((3S)-4-(diethylamino)-3-fluoropiperidin-1-yl)-9-(5-(difluoromethyl)-1,3,4-thiadiazol-2-yl)-9H-pyrimido[4,5-b]indole-7-sulfonamide]
IC50 [1]: < 100 nM | IC50 [2]: < 100 nM

N#CC1(NS(=O)(=O)c2ccc3c4c(N5CCC(N6CCCC6)[C@@H](F)C5)ncnc4n(-c4nnc(C(F)F)s4)c3c2)CC1 (stereo partly drawn) [Example 207, N-(1-Cyanocyclopropyl)-9-(5-(difluoromethyl)-1,3,4-thiadiazol-2-yl)-4-((3S)-3-fluoro-4-(pyrrolidin-1-yl)piperidin-1-yl)-9H-pyrimido[4,5-b]indole-7-sulfonamide]
IC50 [1]: < 100 nM | IC50 [2]: < 100 nM

N#CC1(NS(=O)(=O)c2ccc3c4c(N5CCC(N6CCC6)[C@@H](F)C5)ncnc4n(-c4nnc(C(F)F)s4)c3c2)CC1 (stereo partly drawn) [Example 208, 4-((3S)-4-(Azetidin-1-yl)-3-fluoropiperidin-1-yl)-N-(1-cyanocyclopropyl)-9-(5-(difluoromethyl)-1,3,4-thiadiazol-2-yl)-9H-pyrimido[4,5-b]indole-7-sulfonamide]
IC50 [1]: < 100 nM | IC50 [2]: < 100 nM

N#CC1(NS(=O)(=O)c2ccc3c4c(N5CCC(N6CCOCC6)[C@@H](F)C5)ncnc4n(-c4nnc(C(F)F)s4)c3c2)CC1 (stereo partly drawn) [Example 209, N-(1-Cyanocyclopropyl)-9-(5-(difluoromethyl)-1,3,4-thiadiazol-2-yl)-4-((3S)-3-fluoro-4-morpholinopiperidin-1-yl)-9H-pyrimido[4,5-b]indole-7-sulfonamide]
IC50 [1]: < 100 nM | IC50 [2]: < 100 nM

N#CC1(NS(=O)(=O)c2ccc3c4c(N5C6CCC5COC6)ncnc4n(-c4nnc(C(F)F)s4)c3c2)CC1 [Example 210, 4-(3-Oxa-8-azabicyclo[3.2.1]octan-8-yl)-N-(1-cyanocyclopropyl)-9-(5-(difluoromethyl)-1,3,4-thiadiazol-2-yl)-9H-pyrimido[4,5-b]indole-7-sulfonamide]
IC50 [1]: < 100 nM | IC50 [2]: < 100 nM
